Source: patent US12306176B2, “Microfluidic bi-directional migration assay” (Ohio State Innovation Foundation, priority 2017, dated 2025)

Tested on: MDA-MB-231 cells
Test: Microfluidic bi-directional migration (MBDM) assay, mean migration speed and persistence
Format: cell-based, human
Excerpt: To quantify the effects of iEF treatment on directed cell migration speed and persistence, a custom microfluidic bi-directional microtrack (MBDM) assay was developed that enables real-time monitoring with time-lapse microscopy of cell motility.
In this study, the EF sensing mechanisms of breast cancer cells in response to asymmetric iEFs (<100 μV/cm) was investigated. Using a MBDM assay, changes in the speed and persistence of spontaneously migrating MDA-MB-231 breast cancer cells were observed. This cell type was selected for these studies because it is a putative metastatic breast cancer cell line that is also responsive to gradients of a chemoattractant such as EGF (Wang S J, et al. (2004) Exp Cell Res 300 (1):180-189; Wu A, et al. (2013) Proc Natl Acad Sci U S A 110(40):16103-16108). […] This configuration enables direct comparison of cell movement in response to iEFs applied primarily with the direction of cell migration (“parallel”) or against the direction of cell migration (“anti-parallel”) within the same microfluidic device. Here, the field direction is defined as the direction that has the higher peak magnitude, as well as higher time-average field strength.
To calculate persistence, the following protocol was followed for each cell tracked in a microtrack of the MBDM assay. A cell starts at position Pt at time t. After a single time increment, dt, the cell moves to a new position, Pt+dt. The distance traveled during this time is the absolute difference in the two positions denoted as Li: Li=|Pt+dt−Pt|
The total distance traveled is then the sum of all distances traveled during N time increments denoted as Lt. Additionally, the total time of travel is the number of time increments multiplied by the size of the time increments denoted as Tt.
The displacement is simply the difference between the final and initial position: Ld=|PFinal−PInitial|
The MBDM assay was designed to have three ports separated by 700 μm long arrays of parallel microtracks (FIG. 1D). The dimension of each port was 50 mm×15 mm. Cells were seeded in the center port and the top and bottom ports were designated as cell collection port and/or chemokine source reservoir port depending on the experimental condition. Microchannels were designed to have a square cross-section of 20 μm×20 μm. The cross-section dimensions were on the same order as the size of single cells and mimic the dimensions of pre-existing microtracks available to cells in-vivo (Kraning-Rush C M, et al. (2013) lntegr Biol (Camb). 5 (3):606-616). Moreover, these migratory tracks are representative of physiologically relevant matrix metalloproteinase independent cancer-cell migration mode during metastasis (Friedl P & Alexander S (2011) Cell 147 (5):992-1009; Wolf K, et al. (2009) Semin Cell Dev Biol. 20 (8):931-941; Friedl P & Wolf K (2003) Nat Rev Cancer. 3 (5):362; Wolf K, et al. (2007) Nat Cell Biol. 9 (8):893; Wolf K, et al. (2003) J Cell Biol. 160 (2):267-277). The bi-directional design of this assay allows cells to migrate in either direction from the seeding port and provides a better understanding and quantification of the directional bias of external cues such as chemokine gradients and the directional effects of applied iEFs. The large ports for cell seeding ensure uniform seeding density, excellent cell viability, and repeatability.
Cells were washed in culture plates with 1×PBS solution, treated with 0.05% trypsin-EDTA solution (Sigma-Aldrich), and then counted using a hemocytometer. Cells (2×10^5) suspended in migration media were seeded in the middle port (seeding port) with an extremely small flow from the collection ports to the seeding port, which equilibrated in less than 15 minutes. The cells inside the devices were then incubated for 12 hours in migration media following which the media was aspirated and replaced with new media based on the experimental conditions. […]

[1] = MK2206 2.5 μM alone, no EGF, no iEF
[2] = MK2206 2.5 μM alone, under EGF gradient (25 ng/mL)
[3] = MK2206 2.5 μM plus anti-parallel iEFs, under EGF gradient
[4] = MK2206 2.5 μM plus parallel iEFs, under EGF gradient

**Q.** How did the “increase of mean migration speed compared to untreated controls” value [1] turn out when NC1(c2ccc(-c3nc4ccn5c(=O)[nH]nc5c4cc3-c3ccccc3)cc2)CCC1 [MK2206] was run?
**A.** 9%

**Q.** And the “reduction of persistence compared to untreated controls” value [1]?
**A.** 31%

**Q.** And the “reduction of persistence below EGF-gradient conditions” value (MK2206 2.5 μM alone, under EGF gradient)?
**A.** 9%

**Q.** And the mean migration speed [2]?
**A.** 0.36 μm/min

**Q.** And the “reduction of mean migration speed compared to EGF-gradient condition” value [2]?
**A.** 16%

**Q.** And the “persistence compared to MK2206 treatment alone” value (MK2206 2.5 μM co-applied with anti-parallel iEFs, no EGF)?
**A.** significantly increased

**Q.** And the “average migration speed compared to untreated controls” value (MK2206 2.5 μM co-applied with iEFs, parallel or anti-parallel, no EGF)?
**A.** comparable modest decrease

**Q.** And the mean migration speed [3]?
**A.** 0.31 μm/min

**Q.** What about the “reduction of mean migration speed below EGF controls” value [3] of the same molecule?
**A.** 28%

**Q.** What about the “reduction of persistence from the EGF control” value [3] of the same molecule?
**A.** 26%

**Q.** What about the mean migration speed [4] of the same molecule?
**A.** 0.26 μm/min

**Q.** What about the “reduction of mean migration speed below EGF controls” value [4] of the same molecule?
**A.** 40%

**Q.** And the “reduction of persistence from the EGF control” value [4]?
**A.** 19%

**Q.** And the “directional response of migration speed to iEF” value (MK2206 treatment, no exogenous EGF gradient)?
**A.** nullified
